Experimental data as given in article PMC11362066, “Fecal elimination of fluralaner in different carnivore species after oral administration” (Frontiers in Veterinary Science, 2024).
≈ marks a conversion by molar mass, not a printed value. Like-named read-outs stand apart in the source and are kept apart here.

What was measured:
[1] = Fecal elimination of fluralaner after oral administration, Lion; assay type: in vivo, Panthera leo
Procedure: (§1) Based on the species present at the Paris Zoo, the animals selected to be part of the study are described in Table 1.
(§2) Each individual received 1–3 tablets of fluralaner (Bravecto®, formulations from 112.5 mg to 1,400 mg per tablet), based on the dose determined (Table 2) and the actual BW of the animal on day 0 (D0). Tablets were administered with the food. Tablets were not divided, according to the summary of product characteristics and the dose administered was adjusted as closely as possible to the theoretical dose calculated. The recommended bracket doses (25–56 mg/kg in a 20-kg dog) were used as a guideline (adjusted to the body weight of the animals) to ensure that the actual dose administered would remain in the acceptable margin. For instance, for the Iberian Wolf: using the dose range 25–56 mg/kg gave a D-reference of [500–1,120] mg, thus c = D-ref/P-ref = [0.76–1.69], i.e., D-target = [763–1,698] mg, resulting in a reference range of [21.9–48.6] mg.kg^−1. The actual doses administered were between 28 and 30 mg.kg^−1. This was checked for all species.
(§3) Feces were sampled on the floor, in priority on concrete ground in indoor facilities when animals were isolated. Fecal sampling was performed by keepers with gloves, transferred to sterile vials, then saved at −80°C until transfer to the lab.
(§4) For feces analysis, well-homogenized samples were weighed and dried at 40°C overnight to eliminate water. 200 mg of the dried sample were weighed, 80 μL of IS solution (0.5 μg/mL solution), 0.52 mL of water, 200 mg QuEChERS salts and 1 mL of acetonitrile were added in a 5 mL plastic centrifuge tube. The sample was then mixed well by vortexing for 2 min and then centrifuged at 12,000 rpm for 5 min.
(§5) The upper clear layer solutions were transferred to auto-sampler vials and placed in the auto-sampler at 10°C for LC–MS/MS analysis. All results are reported in μg.kg^−1 dry weight (dw).
(§6) All pharmacokinetic data were computed using a non-linear model and “PK solver” in Microsoft-excel®. This approach has been used by Kilp et al. ([21]) and considered satisfactory by comparison with a standard PK software such as WinNonLIn®.
(§7) Only Lion and Mountain lion data (3 individuals+negative control for each species) are presented in Figure 2 as mean ± SD of the fecal concentration of fluralaner vs. time post administration. When data were LOD < Data<LOQ, an average value of 4 has been used (for graphical and PK analysis purposes). When concentrations were < LOD, ½ LOD value was used for the same purposes.

[2] = parameters: method as in PMID 33407820; settings: wombats, pour on, doses of 25 or 85 mg.kg^−1; cited from earlier work
[3] = system: Daphnia magna; parameters: method as in ref 10 = [10]; 10. CVMP ( 2017 ) CVMP assessment report for EXZOLT (EM EA/V/C/004344/0000), EMA/377159/2017, Available at: https://www.ema.europa.eu/en/documents/assessment-report/exzolt-epar-public-assessment-repor; settings: cited from earlier work
[4] = parameters: method as in PMID 33733534; settings: cited from earlier work
[5] = Fecal elimination of fluralaner after oral administration, Fossa; assay type: in vivo, Cryptoprocta ferox; settings: Fossa n = 1
Procedure: as §1, §2, §3, §4, §5, §6, §7

[6] = Fecal elimination of fluralaner after oral administration, Jaguar; assay type: in vivo, Panthera onca; settings: Jaguar n = 1
Procedure: as §1, §2, §3, §4, §5, §6, §7

[7] = system: honey bees; parameters: method as in ref 10 = [10]; 10. CVMP ( 2017 ) CVMP assessment report for EXZOLT (EM EA/V/C/004344/0000), EMA/377159/2017, Available at: https://www.ema.europa.eu/en/documents/assessment-report/exzolt-epar-public-assessment-repor; settings: cited from earlier work
[8] = Fecal elimination of fluralaner after oral administration, European otter; assay type: in vivo, Lutra lutra; settings: European otter n = 1
Procedure: as §1, §2, §3, §4, §5, §6, §7

[9] = parameters: method as in ref 27 = [27]; 27. VSDB Veterinary substances DataBase consulted on June 1st, ( 2022 ) Available at: http://sitem.herts.ac.uk/aeru/vsdb/index.htm; settings: VSDB; cited from earlier work
[10] = parameters: method as in PMID 33480547; settings: black bears, orally at 25 mg.kg^−1; cited from earlier work
[11] = cited from earlier work
[12] = parameters: method as in PMID 28103942; settings: 221 dogs treated; cited from earlier work
[13] = Fecal elimination of fluralaner after oral administration, Iberian wolf; assay type: in vivo, Canis lupus; settings: Iberian wolf n = 1
Procedure: as §1, §2, §3, §4, §5, §6, §7

[14] = system: sarcoptic mange; parameters: method as in PMID 30895701; settings: Raccoon dogs, one oral dose; cited from earlier work
[15] = parameters: method as in PMID 36265636; settings: treated dogs; cited from earlier work
[16] = system: dog and cat fleas; settings: cited from earlier work
[17] = cited from earlier work; remark: listed apart in the source
[18] = Fecal elimination of fluralaner after oral administration, Suricate; assay type: in vivo, Suricatta suricatta; settings: feces, Suricate n = 1
Procedure: as §1, §2, §3, §4, §5, §6, §7

[19] = cited from earlier work; remark: listed apart in the source
[20] = Fecal elimination of fluralaner after oral administration, South American coati; assay type: in vivo, Nasua nasua; settings: South American coati n = 1
Procedure: as §1, §2, §3, §4, §5, §6, §7

[21] = Fecal elimination of fluralaner after oral administration, Mountain lion; assay type: in vivo, Puma concolor
Procedure: as §1, §2, §3, §4, §5, §6, §7

[22] = Oral Bravecto in zoo carnivores, all treated animals (tolerance, fecal residues); assay type: in vivo
Procedure: as §1, §2, §3

[23] = fecal elimination, Lion n = 3, mean ± SD, oral 16.0–24.1 mg.kg^−1
[24] = feces, Lion n = 3, mean ± SD, oral 16.0–24.1 mg.kg^−1
[25] = fecal elimination, oral 26.3 mg.kg^−1
[26] = fecal elimination, oral 34.5 mg.kg^−1
[27] = fecal elimination, oral 36.8 mg.kg^−1
[28] = fecal elimination, oral 28.6 mg.kg^−1
[29] = fecal elimination, oral 52.1 mg.kg^−1
[30] = fecal elimination, Mountain lion n = 3, mean ± SD, oral 20.8–25.0 mg.kg^−1
[31] = feces, Mountain lion n = 3, mean ± SD, oral 20.8–25.0 mg.kg^−1

Structure (SMILES): Cc1cc(C2=NOC(c3cc(Cl)cc(Cl)c3)(C(F)(F)F)C2)ccc1C(=O)NCC(=O)NCC(F)(F)F (stereo not shown) [fluralaner, Fluralaner]
- MRT [1, 23]: 190 ± 24 h
- t1/2 [1, 23]: 288 ± 24 h
- Cmax ([1]; feces, Lion n = 3, mean ± SD, Bravecto tablets oral with food, 16.0–24.1 mg.kg^−1, rough estimate): 44,880 ± 28,616 μg.kg-^1 dry weight
- AUC (D0-D112) [1, 24]: 232,796±95,614 d* μg.kg-^1 dry weight
- AUC(0-infini) [1, 24]: 234,203±95,339 d* μg.kg-^1 dry weight
- Last detection day ([1]; feces, Lion n = 3, oral 16.0–24.1 mg.kg^−1): 89 days
- tmax ([1]; feces, Lion n = 3, oral 16.0–24.1 mg.kg^−1, rough estimate): 24 h
- Safety [2]: safe
- LC50 ([3]; Daphnia magna, assessment report for EXZOLT): 0.047 µg/mL (≈ 0.0845 µM)
- No Observed Effect Concentration (NOEC) for reproduction ([3]; Daphnia magna): 0.047 µg/L
- Toxicity classification ([3]; aquatic invertebrates (Daphnia magna)): highly toxic
- Protein-bound [4]: > 99%
- MRT [5, 25]: 24 h
- t1/2 [5, 25]: 72 h
- Cmax ([5]; feces, Bravecto tablet oral with food, 26.3 mg.kg^−1, rough estimate, residues in control animal in same cage): 370,295 μg.kg-^1 dry weight
- AUC (D0-D112) ([5]; feces, oral 26.3 mg.kg^−1): 1,373,277 d* μg.kg-^1 dry weight
- AUC(0-infini) ([5]; feces, oral 26.3 mg.kg^−1): 1,373,579 d* μg.kg-^1 dry weight
- Last detection day ([5]; feces, oral 26.3 mg.kg^−1): 35 days
- tmax ([5]; feces, oral 26.3 mg.kg^−1, rough estimate): 24 h
- MRT [6, 26]: 360 h
- t1/2 [6, 26]: 190 h
- Cmax ([6]; feces, Bravecto tablets oral with food, 34.5 mg.kg^−1, rough estimate): 16,089 μg.kg-^1 dry weight
- AUC (D0-D112) ([6]; feces, oral 34.5 mg.kg^−1): 145,337 d* μg.kg-^1 dry weight
- AUC(0-infini) ([6]; feces, oral 34.5 mg.kg^−1): 145,752 d* μg.kg-^1 dry weight
- Last detection day ([6]; feces, oral 34.5 mg.kg^−1): 72 days
- tmax ([6]; feces, oral 34.5 mg.kg^−1, rough estimate): 170 h
- Toxicity classification [7]: highly toxic
- MRT [8, 27]: 384 h
- t1/2 [8, 27]: 48 h
- Cmax ([8]; feces, Bravecto tablet oral with food, 36.8 mg.kg^−1, rough estimate): 2,137 μg.kg-^1 dry weight
- AUC (D0-D112) ([8]; feces, oral 36.8 mg.kg^−1): 41,301 d* μg.kg-^1 dry weight
- AUC(0-infini) ([8]; feces, oral 36.8 mg.kg^−1): 41,354 d* μg.kg-^1 dry weight
- Last detection day ([8]; feces, oral 36.8 mg.kg^−1): 42 days
- tmax ([8]; feces, oral 36.8 mg.kg^−1, rough estimate): 170 h
- Hydrolysis [9]: not degraded by hydrolysis
- Lipophilicity [9]: lipophilic
- Half-life [10]: 118 h
- Administered dose eliminated unchanged in the feces [11]: 90%
- Administered dose eliminated unchanged in the feces ([11]; rats, dogs and chickens): up to 90%
- Eliminated via the feces as the unchanged compound ([11]; reference not given): > 90%
- Dogs displaying alopecia [12]: 4%
- Dogs displaying vomiting [12]: 6%
- MRT [13, 28]: 140 h
- t1/2 [13, 28]: 120 h
- Cmax ([13]; feces, Bravecto tablet oral with food, 28.6 mg.kg^−1, rough estimate): 620 μg.kg-^1 dry weight
- AUC (D0-D112) ([13]; feces, oral 28.6 mg.kg^−1): 7,218 d* μg.kg-^1 dry weight
- AUC(0-infini) ([13]; feces, oral 28.6 mg.kg^−1): 7,260 d* μg.kg-^1 dry weight
- Last detection day ([13]; feces, oral 28.6 mg.kg^−1): 31 days
- tmax ([13]; feces, oral 28.6 mg.kg^−1, rough estimate): 24 h
- Time to cure from sarcoptic mange [14]: 7 days
- Measured values in urine samples [15]: 1 µg/L
- Efficacy period ([16]; dogs and cats): 12 week
- Duration of insecticidal effect on dog and cat fleas ([16]; reference not given): 12 weeks
- DT50 in soil ([17]; CVMP assessment report): ~1,000 days
- DT50 in soil ([17]; VSDB): 60 days
- DT50 in aquatic environments ([17]; aerobic waters): 3 to 4 days
- DT50 in soil ([17]; sandy loams): up to 989 days
- DT50 in sediments ([17]; sediments): 112 to 195 days
- Cmax ([18]; Bravecto tablet oral with food, 125 mg.kg^−1, rough estimate, residues in control animal in same cage): 15 μg.kg-^1 dry weight
- AUC (D0-D112) ([18]; oral 125 mg.kg^−1): 105 d* μg.kg-^1 dry weight
- Last detection day ([18]; oral 125 mg.kg^−1): 14 days
- tmax ([18]; oral 125 mg.kg^−1, rough estimate): 336 h
- Effect of food on bioavailability ([19]; dogs fed prior to the administration of the drug): doubled
- Half-life ([19]; dogs, oral administration): 264 to 312 h
- Bioavailability, topical administration ([19]; dogs, topical): 22–25%
- MRT [20, 29]: 912 h
- t1/2 [20, 29]: 624 h
- Cmax ([20]; feces, Bravecto tablet oral with food, 52.1 mg.kg^−1, rough estimate): 453 μg.kg-^1 dry weight
- AUC (D0-D112) ([20]; feces, oral 52.1 mg.kg^−1): 7,688 d* μg.kg-^1 dry weight
- AUC(0-infini) ([20]; feces, oral 52.1 mg.kg^−1): 8,998 d* μg.kg-^1 dry weight
- Last detection day ([20]; feces, oral 52.1 mg.kg^−1): 82 days
- tmax ([20]; feces, oral 52.1 mg.kg^−1, rough estimate): 24 h
- MRT [21, 30]: 72 ± 24 h
- t1/2 [21, 30]: 140 ± 24 h
- Cmax ([21]; feces, Mountain lion n = 3, mean ± SD, Bravecto tablets oral with food, 20.8–25.0 mg.kg^−1, rough estimate): 12,909 ± 4,954 μg.kg-^1 dry weight
- AUC (D0-D112) [21, 31]: 54,158±19,755 d* μg.kg-^1 dry weight
- AUC(0-infini) [21, 31]: 54,786±19,755 d* μg.kg-^1 dry weight
- Last detection day ([21]; feces, Mountain lion n = 3, oral 20.8–25.0 mg.kg^−1): 49 days
- tmax ([21]; feces, Mountain lion n = 3, oral 20.8–25.0 mg.kg^−1, rough estimate): 24 h
- Adverse reaction during the course of the study ([22]; all animals treated, oral Bravecto tablets, allometrically scaled dose): No adverse reaction was noted
- Concentrations detected in fecal samples throughout the study ([22]; feces, highest value): up to 44,000 μg/kg
- Duration of elimination in feces as an active substance ([22]; our study): up to 3 months
